Structures can show the parent of a compound that is named as a salt.

Consider ten compounds from patent US20110039892A1, “IMINOPYRIDINE DERIVATIVE AND USE THEREOF” (TAKEDA PHARMACEUTICAL COMPANY LIMITED, priority 2008, published 2011).

This test addresses T1, human α1D adrenergic receptor (Homo sapiens, UniProt P25100).
T1 construct: expressed in transfected cells; membrane fraction used
T1 sequence (P25100 1-572): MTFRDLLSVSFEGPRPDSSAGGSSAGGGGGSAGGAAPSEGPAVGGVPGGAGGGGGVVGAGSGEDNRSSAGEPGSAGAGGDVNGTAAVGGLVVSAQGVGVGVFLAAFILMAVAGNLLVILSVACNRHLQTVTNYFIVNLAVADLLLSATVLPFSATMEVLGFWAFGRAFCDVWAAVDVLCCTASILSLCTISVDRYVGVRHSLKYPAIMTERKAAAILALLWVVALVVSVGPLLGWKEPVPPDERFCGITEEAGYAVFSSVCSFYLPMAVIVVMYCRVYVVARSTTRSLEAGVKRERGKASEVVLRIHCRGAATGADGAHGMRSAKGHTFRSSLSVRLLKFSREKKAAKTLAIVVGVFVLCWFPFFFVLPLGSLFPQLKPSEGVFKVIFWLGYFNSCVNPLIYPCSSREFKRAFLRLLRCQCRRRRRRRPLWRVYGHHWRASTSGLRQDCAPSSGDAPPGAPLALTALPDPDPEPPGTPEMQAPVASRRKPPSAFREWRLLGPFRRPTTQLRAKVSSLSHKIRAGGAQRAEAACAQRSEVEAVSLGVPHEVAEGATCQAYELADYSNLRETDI
The test can be described thus: Measurement of α1D adrenergic receptor binding inhibitory activity ([3H]-prazosin binding to membrane fraction of CHO-K1 cells expressing the receptor). The settings on record: compound at 1 μM; [3H]-prazosin 2.5 nM; membrane fraction 20 μg/well; room temperature, 1 hr; read-out: Binding inhibitory rate (%) (α1D adrenergic receptor binding inhibitory rate). As to the method:
Measurement of α1D Adrenergic Receptor Binding Inhibitory Activity
(i) Preparation of Human α1D Adrenergic Receptor Expression Plasmid
α1D Adrenergic Receptor Gene was Cloned from Human Liver cDNA by the PCR method. PCR reaction was performed by Gene Amp PCR System 9700 (Applied Biosystems) with 50 pmol each of the primer set 5′-[…]-3′ [SEQ ID NO: 1] and 5′-[…]-3′ [SEQ ID NO: 2] prepared in reference to the base sequence of the α1D adrenergic receptor gene reported by DEBRA A. et al. (J. Pharamacol. Exp. Ter., 272, 134-142 (1995)), 200 ng of human brain hippocampus cDNA library (Takara Shuzo Co., Ltd.) as a template and TaKaRa LA-Taq DNA Polymerase (Takara Shuzo Co., Ltd.) (reaction conditions: 45 cycles of 94° C. for 15 sec, 68° C. for 3.5 min).
The PCR fragment obtained above was digested with restriction enzymes NheI (Takara Shuzo Co., Ltd.) and Kpn I (Takara Shuzo Co., Ltd.), and applied to agarose gel electrophoresis to recover DNA fragments. The DNA fragments were ligated with animal cell expression plasmid pcDNA3.1/Zeo (Invitrogen) digested with NheI and Kpn I, by DNA Ligation Kit Ver. 2 (Takara Shuzo Co., Ltd.), and transformed the competent cells of Escherichia coli JM109 to obtain plasmid, pcDNA3.1/Zeo-Adreα1D.
(ii) Introduction of Human α1D Adrenergic Receptor Expression Plasmid into CHO-K1 Cells and Preparation of Membrane Fraction
CHO-K1 cells passage cultured in HamF12 medium (Invitrogen) containing 10% fetal bovine serum (TRACE SCIENCETIFIC) in a 150 cm^2 culture flask (Corning Coaster) were detached with 0.5 g/L trypsin-0.2 g/L EDTA (Invitrogen), and the cells were washed with D-PBS(−) (Invitrogen) and centrifuged (1000 rpm, 5 min). Then, using Gene Pulser II (BioRad), DNA was introduced into the cells under the following conditions. 1×10^7 cells suspended in D-PBS(−) (700 μl) and 10 μg of pcDNA3.1/Zeo-Adreα1D were added in a 0.4 cm gap cuvette (BioRad), and electroporation was performed under voltage 0.25 kV, capacitance 960 μF. The cells were cultured in HamF12 medium containing 10% fetal bovine serum and 250 μg/mL Zeocin (Invitrogen) and the Zeocin resistance clones were selected.
Plurality of Zeocin resistance clones were selected and cultured in a cell culture flask (150 cm^2) until semiconfluent, and the cellular membrane fraction was prepared as follows.
The semiconfluent cells were detached with 0.02% EDTA containing D-PBS(−) and recovered by centrifugation. The cells were suspended in membrane preparation buffer (10 mM NaHCO3 pH 7.4, protease inhibitor cocktail (Roche)) and disrupted by 3 times of treatment in a polytron homogenizer (model PT-3100, KINEMATICA AG) at 20000 rpm for 20 seconds. After disruption, the cells were centrifuged at 2000 rpm for 10 min and the supernatant containing membrane fractions was obtained. The supernatant was centrifuged using an ultracentrifuge (model L8-70M, rotor 70 Ti, Beckman Instruments) at 30000 rpm for 1 hr to obtain a precipitate containing membrane fractions. The obtained membrane fraction of each clone was subjected to the binding experiment shown below.
The membrane fraction (20 μg/well) and [^3H]-prazosin (2.5 nM, PerkinElmer Lifescience), as a ligand, were diluted with a binding assay buffer (50 mM Tris-HCl, 10 mM MgCl2, 0.5% BSA, protease inhibitor cocktail pH 7.5), added to a 96 well microplate, and reacted at room temperature for 1 hr. For the measurement of non-specific binding, phentolamine (Sigma) was further added to 10 μM. Then, the reaction mixture was filtered and transferred to unifilter GF/C (PerkinElmer Lifescience) by using a cell harvester (PerkinElmer Lifescience). The filter was washed 3 times with ice-cooled 50 mM Tris buffer (pH 7.5). After drying the filter, MicroScinti 0 (PerkinElmer Lifescience) was added to the filter and the radioactivity was measured by TopCount (PerkinElmer Lifescience).
(iii) Evaluation of Example Compound […]
`CC(c1cccc(Cl)c1)n1cc(Cl)cc(C(N)=O)c1=N` (stereo not shown) [Example 1, 5-chloro-1-[1-(3-chlorophenyl)ethyl]-2-imino-1,2-dihydropyridine-3-carboxamide]: the inhibition at 1 µM worked out at 100%. Consider `N=c1c(C(N)=O)cc(Cl)cn1C1CCc2ccc(Cl)cc21` (stereo not shown) [Example 2, 5-chloro-1-(6-chloro-2,3-dihydro-1H-inden-1-yl)-2-imino-1,2-dihydropyridine-3-carboxamide], for which the inhibition at 1 µM came out at 102%. The value for `CC(c1ccsc1)n1cc(Cl)cc(C(N)=O)c1=N` (stereo not shown) [Example 5, 5-chloro-2-imino-1-(1-(thiophen-3-yl)ethyl)-1,2-dihydropyridine-3-carboxamide hydrochloride] was 79.4%.

As to `C[C@H](c1cccc(F)c1)n1cc(Cl)cc(C(N)=O)c1=N` [Example 12, 5-chloro-1-[(1R)-1-(3-fluorophenyl)ethyl]-2-imino-1,2-dihydropyridine-3-carboxamide hydrochloride], the inhibition at 1 µM amounted to 97%. `C[C@H](c1cc(F)cc(F)c1)n1cc(Cl)cc(C(N)=O)c1=N` [Example 14, 5-chloro-1-[(1R)-1-(3,5-difluorophenyl)ethyl]-2-imino-1,2-dihydropyridine-3-carboxamide hydrochloride]: the inhibition at 1 µM came to 100%. The value for `N=c1c(C(N)=O)cc(Cl)cn1C1(c2ccccc2)CC1` [Example 15, 5-chloro-2-imino-1-(1-phenylcyclopropyl)-1,2-dihydropyridine-3-carboxamide] was 62%.

Consider `N#Cc1ccc2c(c1)C(n1cc(Cl)cc(C(N)=O)c1=N)CC2` (stereo not shown) [Example 19, 5-chloro-1-(6-cyano-2,3-dihydro-1H-inden-1-yl)-2-imino-1,2-dihydropyridine-3-carboxamide hydrochloride], for which the inhibition at 1 µM was determined as 94.8%. The value for `C[C@H](c1ccc(F)cc1)n1cc(Cl)cc(C(N)=O)c1=N` [Example 22, 5-chloro-1-[(1R)-1-(4-fluorophenyl)ethyl]-2-imino-1,2-dihydropyridine-3-carboxamide hydrochloride] was 96.1%; that for `C[C@H](c1cccc(C#N)c1)n1cc(Cl)cc(C(N)=O)c1=N` [Example 23, 5-chloro-1-[(1R)-1-(3-cyanophenyl)ethyl]-2-imino-1,2-dihydropyridine-3-carboxamide hydrochloride] was 100%.

As for `N=c1c(C(N)=O)cc(Cl)cn1C1CCS(=O)(=O)c2ccc(Cl)cc21` (stereo not shown) [Example 30, 5-chloro-1-(6-chloro-1,1-dioxido-3,4-dihydro-2H-thiochromen-4-yl)-2-imino-1,2-dihydropyridine-3-carboxamide hydrochloride], the inhibition at 1 µM stood at 96.9%.
